How the values were obtained:
[1] = system: Saccharomyces cerevisiae ethanol red; details: commercial Saccharomyces cerevisiae ethanol red; Adeboye et al., 2014; cited from earlier work
wild-type yeast (BY4741) = assay: ROS measurement by H2DCFDA fluorescence microscopy; format: cell-based, S. cerevisiae; details: 2 mM CA, 1 hour at 30° C.; for subcellular distribution of induced ROS: 10 mM FA or 50 mM 4-HBA
Experimental: Measurement of ROS was performed as previously described (Kennedy et al., 2016, Sci Rep. 6, 19332). Briefly cells were incubated with 10 μM 2′,7′-dichlorodihydrofluorescein diacetate (H2DCFDA; Invitrogen cat. #D399) for 15 min in the dark. […] An aliquot of 5 μL was spotted onto glass slides and covered with a cover slip prior to imaging. All images were acquired using a Leica DMI 6000 florescent microscope (Leica Microsystems GmbH, Wetzler Germany), equipped with a Sutter DG4 light source (Sutter Instruments, California, USA), Ludl emission filter wheel with Chroma band pass emission filters (Ludl Electronic Products Ltd., NY, USA) and Hamamatsu Orca AG camera (Hamamatsu Photonics, Herrsching am Ammersee, Germany). Images were acquired at 0.2 μm steps across 6 μm using a 63× oil-immersion objective with a 1.4 numerical aperture. Analysis of H2DCFDA fluorescence was performed using Velocity Software V4 (Perkin Elmer). Image J software was used to quantify the H2DCFDA fluorescence signal in cells as described by Schneider et al (Schneider et al., 2012, Nature Methods, 9, 671-675) with a slight modification. Briefly, background fluorescence was subtracted from the images and the total fluorescence of all the cells in the image was measured and divided by the number of cells in the image. The images contained a minimum of 100 cells. The ratio of fluorescence per cell of treated cultures was divided by that of untreated cultures to eliminate background endogenous ROS production.

Zwf1-GFP = Zwf1-GFP fluorescence microscopy; format: cell-based, S. cerevisiae; details: 2 mM CA for 120 min at 30° C. (ρ=9.69E-5); ferulic acid 10 mM
Experimental: For the microscopy studies, wild type cells expressing endogenously tagged Zwf1-GFP (YKB4825) were grown to mid log in YPD, prior to being washed and resuspended in YPD medium (Untreated) or YPD medium containing 2 mM coniferyl aldehyde (CA) for 120 min at 30° C. Images (FIG. 8A) are representative of three independent experiments where a minimum of 100 cells each were imaged. Scale bar represents 10 μm.

bna7Δ (YKB4649) [2] = assay: serial dilution spot assay on YPD agar plates; format: cell-based, S. cerevisiae; details: 10 mM FA, 35 mM 4-HBA or 1 mM CA, 48 hr at 30° C.
Experimental: (§1) In addition, deletion mutants were generated for genes involved in the tryptophan catabolic pathway and their growth was assayed on solid media containing 10 mM ferulic acid. In particular, wild type yeast (BY4741) along with deletion mutants aro8Δ (YKB4799), bna7Δ (YKB4649), bna2Δ (YKB4798), bna6Δ (YKB4844), bna5Δ (YKB4845), bna4Δ (YKB4846) and bna1Δ (YKB4729) were grown to mid log phase ([…] 0.5-0.6) in YPD medium prior to being diluted to an OD600 of 0.1. Four 10-fold serial dilutions were spotted onto YPD agar plates either containing 10 mM ferulic acid or no ferulic acid. Plates were incubated for 48 hr at 30° C. Images of the plates were taken with the ChemiDoc XRS Molecular Imaging system (Biorad) and images are representative of three biological replicates.
Experiments were also conducted to determine if deletion of BNA7 could provide protection to 4-hydroxybenzoic acid or coniferyl aldehyde (CA). Wild type (BY4741) and bna7A (YKB4649) strains were grown to mid log phase in YPD medium prior to being diluted into fresh medium to an OD600 of 0.1. Four 10-fold serial dilutions were spotted onto YPD agar plates containing either no compound (Untreated), 10 mM ferulic acid (FA), 35 mM 4-hydroxybenzoic acid (4-HBA) or 1 mM coniferyl aldehyde (CA). Plates were incubated for 48 hr at 30° C. and images are representative of three biological replicates.

[3] = system: mutants aro8Δ, bna2Δ, bna6Δ, bna5Δ, bna4Δ and bna1Δ; assay: serial dilution spot assay on YPD agar plates; format: cell-based, S. cerevisiae; details: 10 mM ferulic acid, 48 hr at 30° C.
Experimental: as §1

bna7Δ cells = assay: ROS measurement by H2DCFDA fluorescence microscopy; format: cell-based, S. cerevisiae; details: 10 mM ferulic acid for 2 hr; not statistically significant (ρ=0.756)
Experimental: For all microscopy experiments overnight cultures of wild-type yeast grown at 30° C. were re-suspended at an OD600 of 0.1 in YPD medium and allowed to reach mid-log phase prior to imaging. Measurement of ROS was performed as previously described (Kennedy et al., 2016, Sci Rep. 6, 19332). Briefly cells were incubated with 10 μM 2′,7′-dichlorodihydrofluorescein diacetate (H2DCFDA; Invitrogen cat. #D399) for 15 min in the dark. Cells were washed in sterile PBS to remove traces of the dye after which they were re-suspended in YPD medium alone, or YPD supplemented with either 2 mM coniferyl aldehyde, […]
Analysis of H2DCFDA fluorescence was performed using Velocity Software V4 (Perkin Elmer). Image J software was used to quantify the H2DCFDA fluorescence signal in cells as described by Schneider et al (Schneider et al., 2012, Nature Methods, 9, 671-675) with a slight modification. Briefly, background fluorescence was subtracted from the images and the total fluorescence of all the cells in the image was measured and divided by the number of cells in the image. […] The ratio of fluorescence per cell of treated cultures was divided by that of untreated cultures to eliminate background endogenous ROS production. […]

bna7Δ (YKB4649) [4] = assay: automated growth curve analysis in YPD liquid medium; format: cell-based, S. cerevisiae; details: 10 mM ferulic acid, 30° C., 72 hr
Experimental: The agar-based chemogenomic screen was confirmed by measuring the growth rate of the identified mutants in liquid YPD medium supplemented with the phenolic compounds. Briefly, overnight cultures of the mutant strains were inoculated into fresh YPD medium and strains were incubated at 30° C. until they reached the mid log phase ([…] 0.5-0.6), prior to being diluted to a final OD600 of 0.1 in a BioScreen CTM Honeycomb microplate. The growth assays were performed for each mutant in triplicate in YPD alone (control) or YPD medium supplemented with ferulic acid, 4-hydroxybenzoic acid or coniferyl aldehyde. Using a BioScreen CTM plate reader, the cultures were incubated at 30° C. for 72 hours and OD600 readings were taken every 15 min to plot growth curves. Data from the BioScreen CTM were analyzed with the PRECOG software (Fernandez-Ricaud et al., […], Nucleic acids research. 41, W591-6) to obtain the doubling time of all the strains. A PRECOG score for each of the strains tested was calculated as the ratio of the doubling time in the presence of the phenolic to the doubling time in the absence of these phenolic compounds. Using a cut-off PRECOG score of >2 and <0.4 strains were identified that were sensitive or tolerant, respectively, to the phenolic compounds. […]

| SMILES | concentration at which the compound kills the yeast [1] [mM] | subcellular distribution of induced ROS (wild-type yeast (BY4741)) | Zwf1-GFP fluorescence signal/cell (Zwf1-GFP) | resistance of bna7Δ / protection by deletion of BNA7 (bna7Δ (YKB4649) [2]) | effect of gene deletion on ferulic acid tolerance [3] | ROS signal in bna7Δ compared to wild-type (bna7Δ cells) | growth (OD600) of bna7Δ relative to wild-type (bna7Δ (YKB4649) [4]) | ROS formation (H2DCFDA fluorescence) (wild-type yeast (BY4741); 10 mM FA, 50 mM 4-HBA or hydrogen peroxide) |
| --- | --- | --- | --- | --- | --- | --- | --- | --- |
| O=C(O)c1ccc(O)cc1 [4-hydroxybenzoic acid] | 11 | distributed throughout the cell | no increase | does not provide protection |  |  |  |  |
| COc1cc(C=CC(=O)O)ccc1O [ferulic acid, 4-hydroxy-3-methoxycinnamic acid] | 5 | distributed throughout the cell | no increase | resistant | no effect | slight reduction of ROS | increased growth relative to the wild-type strain |  |
| OO [hydrogen peroxide] |  |  |  |  |  |  |  | induced the formation of green fluorescence signal throughout the cell |

Source: US11555210B2, “Microbe having increased tolerance to phenolic fermentation inhibitors” (University of Ottawa, priority 2018, dated 2023)
